Common to all, as to assay: Kinobeads competition binding, HL60 cell lysate
Common to all, as to parameters: endogenous in cells; host or cells: HL60
Details in all cases: 10 μM free compound

One assay has as its target GSK3A (Homo sapiens, UniProt P49840). The method, then:
(§1) To one aliquot of cell lysate 10 μM of the free compound (FIG. 3, CZC31326) was added and allowed to bind to proteins in the lysate. Then the affinity matrix with the immobilized compound (Example 1) was added to capture proteins that were not interacting with the previously added free compound. Beads were separated from the lysate and bead bound proteins were eluted in SDS sample buffer and subsequently separated by SDS-Polyacrylamide gel electrophoresis (FIG. 4). Suitable gel bands were cut out and subjected to in-gel proteolytic digestion with trypsin. The second lysate aliquot was processed identically, however no free compound was added (DMSO solvent control). Peptides originating from samples 1 and 2 were labeled with iTRAQ reagents (iTRAQ 114 and iTRAQ 117) and the combined samples were analyzed with a nano-flow liquid chromatography system coupled online to a tandem mass spectrometer (LC-MS/MS) experiment followed by iTRAQ reporter ion quantification in the MS/MS spectra (Ross et al., 2004. Mol. Cell. Proteomics 3(12):1154-1169). Further experimental protocols can be found in WO2006/134056 and a previous publication (Bantscheff et al., 2007. Nature Biotechnology 25, 1035-1044). Sepharose-beads with the immobilized compound (100 μl beads per pull-down experiment) were equilibrated in lysis buffer and incubated with a cell lysate sample containing 50 mg of protein on an end-over-end shaker (Roto Shake Genie, Scientific Industries Inc.) for 2 hours at 4° C. Beads were collected, transferred to Mobicol-columns (MoBiTech 10055) and washed with 10 ml lysis buffer containing 0.4% NP40 detergent, followed by 5 ml lysis buffer containing 0.2% detergent. To elute bound proteins, 60 μl 2×SDS sample buffer was added to the column. The column was incubated for 30 minutes at 50° C. and the eluate was transferred to a siliconized microfuge tube by centrifugation. Proteins were then alkylated with 108 mM iodoacetamid. Proteins were then separated by SDS-Polyacrylamide electrophoresis (SDS-PAGE). The peptide extracts of samples treated with 10 μM of free compound (CZC31326) and the solvent control (0.5% DMSO) were treated with different variants of the isobaric tagging reagent (iTRAQ Reagents Multiplex Kit, part number 4352135, Applied Biosystems, Foster City, Calif., USA). The iTRAQ reagents are a set of multiplexed, amine-specific, stable isotope reagents that can label peptides on amino groups in up to four different biological samples enabling simultaneous identification and quantitation of peptides. The iTRAQ reagents were used according to instructions provided by the manufacturer. The samples were resuspended in 10 μl 50 mM TEAB solution, pH 8.5 and 10 μl ethanol were added. The iTRAQ reagent was dissolved in 120 μl ethanol and 10 μl of reagent solution were added to the sample. The labeling reaction was performed at room temperature for one hour on a horizontal shaker and stopped by adding 5 μl of 100 mM TEAB and 100 mM glycine in water. The two labeled sampled were then combined, dried in a vacuum centrifuge and resuspended in 10 μl of 0.1% formic acid in water. Relative protein quantitation was performed using peak areas of iTRAQ reporter ion signals essentially as described in an earlier publication (Bantscheff et al., 2007. Nature Biotechnology 25, 1035-1044).

The target of the next assay is PKN1 (Homo sapiens, UniProt Q16512). How it is done:
as §1

For the next assay, the target named is T1, PKD2 (Homo sapiens, UniProt Q9BZL6).
T1 sequence (Q9BZL6 1-878): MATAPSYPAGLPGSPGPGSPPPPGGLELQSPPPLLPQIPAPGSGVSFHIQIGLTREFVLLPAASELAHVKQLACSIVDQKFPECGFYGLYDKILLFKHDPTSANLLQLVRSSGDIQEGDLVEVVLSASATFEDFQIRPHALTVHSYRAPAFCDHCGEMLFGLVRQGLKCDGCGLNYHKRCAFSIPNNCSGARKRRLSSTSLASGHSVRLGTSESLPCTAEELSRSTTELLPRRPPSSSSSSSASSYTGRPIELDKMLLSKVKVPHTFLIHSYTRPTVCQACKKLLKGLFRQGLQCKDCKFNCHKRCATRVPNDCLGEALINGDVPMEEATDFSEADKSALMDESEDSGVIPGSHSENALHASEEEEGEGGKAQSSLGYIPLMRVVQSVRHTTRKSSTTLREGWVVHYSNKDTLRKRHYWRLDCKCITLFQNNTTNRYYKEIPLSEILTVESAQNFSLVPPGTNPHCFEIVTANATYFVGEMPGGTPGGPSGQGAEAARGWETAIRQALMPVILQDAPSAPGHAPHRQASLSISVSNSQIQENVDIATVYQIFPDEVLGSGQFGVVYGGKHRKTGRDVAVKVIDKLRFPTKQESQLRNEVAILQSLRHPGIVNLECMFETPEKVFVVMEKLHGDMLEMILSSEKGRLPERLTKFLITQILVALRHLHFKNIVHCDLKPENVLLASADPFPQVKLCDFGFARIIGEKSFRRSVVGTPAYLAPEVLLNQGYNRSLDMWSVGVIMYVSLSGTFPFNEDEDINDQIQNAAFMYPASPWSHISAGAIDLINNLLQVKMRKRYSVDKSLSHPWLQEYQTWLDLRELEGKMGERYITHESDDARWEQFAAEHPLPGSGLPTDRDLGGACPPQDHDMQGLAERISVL
The method, then:
as §1

The next assay deals with MSK2 (Homo sapiens, UniProt O75676). The method, then: as §1
Sequence of MSK2 (O75676 whole entry): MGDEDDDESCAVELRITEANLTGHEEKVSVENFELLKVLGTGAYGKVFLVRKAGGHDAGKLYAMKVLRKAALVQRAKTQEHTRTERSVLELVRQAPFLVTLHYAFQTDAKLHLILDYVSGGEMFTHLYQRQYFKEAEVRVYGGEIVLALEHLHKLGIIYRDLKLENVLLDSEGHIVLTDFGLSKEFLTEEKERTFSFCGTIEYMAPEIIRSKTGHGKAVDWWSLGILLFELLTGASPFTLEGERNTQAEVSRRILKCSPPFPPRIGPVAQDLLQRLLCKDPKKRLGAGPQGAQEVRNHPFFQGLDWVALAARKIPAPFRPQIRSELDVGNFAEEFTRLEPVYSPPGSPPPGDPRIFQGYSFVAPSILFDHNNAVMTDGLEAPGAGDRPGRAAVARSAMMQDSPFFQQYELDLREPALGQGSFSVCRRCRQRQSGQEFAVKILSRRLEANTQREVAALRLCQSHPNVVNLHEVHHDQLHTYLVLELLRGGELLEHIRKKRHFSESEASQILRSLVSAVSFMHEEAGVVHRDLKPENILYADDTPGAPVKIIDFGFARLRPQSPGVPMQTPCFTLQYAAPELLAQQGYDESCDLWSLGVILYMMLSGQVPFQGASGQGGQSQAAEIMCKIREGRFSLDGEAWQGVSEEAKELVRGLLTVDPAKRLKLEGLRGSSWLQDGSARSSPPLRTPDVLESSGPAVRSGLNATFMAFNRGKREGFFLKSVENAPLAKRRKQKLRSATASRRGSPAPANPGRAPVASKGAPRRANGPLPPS

Sequence of PKN1 (Q16512 whole entry): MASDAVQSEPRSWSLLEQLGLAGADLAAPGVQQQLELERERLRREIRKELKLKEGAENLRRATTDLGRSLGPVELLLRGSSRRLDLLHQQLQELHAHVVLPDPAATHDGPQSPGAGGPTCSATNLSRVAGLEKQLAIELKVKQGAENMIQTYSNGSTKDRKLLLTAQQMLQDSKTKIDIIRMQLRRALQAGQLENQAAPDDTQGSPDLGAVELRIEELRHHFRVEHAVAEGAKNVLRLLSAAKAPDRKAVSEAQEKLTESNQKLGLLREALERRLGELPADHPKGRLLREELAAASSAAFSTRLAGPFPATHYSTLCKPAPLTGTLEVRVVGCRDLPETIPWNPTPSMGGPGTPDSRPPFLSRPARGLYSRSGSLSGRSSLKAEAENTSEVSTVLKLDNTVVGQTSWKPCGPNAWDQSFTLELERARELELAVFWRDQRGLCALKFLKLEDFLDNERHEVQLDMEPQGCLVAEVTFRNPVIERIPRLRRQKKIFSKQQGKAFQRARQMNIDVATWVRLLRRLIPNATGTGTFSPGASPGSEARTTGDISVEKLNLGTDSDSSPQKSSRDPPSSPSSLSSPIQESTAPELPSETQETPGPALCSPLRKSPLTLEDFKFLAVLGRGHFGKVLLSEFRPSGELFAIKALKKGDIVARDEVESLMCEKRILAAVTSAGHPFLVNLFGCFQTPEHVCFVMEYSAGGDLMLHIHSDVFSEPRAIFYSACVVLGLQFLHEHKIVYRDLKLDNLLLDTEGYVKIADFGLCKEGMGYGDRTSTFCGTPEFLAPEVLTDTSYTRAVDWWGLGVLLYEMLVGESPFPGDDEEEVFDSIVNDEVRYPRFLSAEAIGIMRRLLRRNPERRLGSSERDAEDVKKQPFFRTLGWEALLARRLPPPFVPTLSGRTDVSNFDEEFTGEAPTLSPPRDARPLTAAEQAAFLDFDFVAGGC
Sequence of GSK3A (P49840 whole entry): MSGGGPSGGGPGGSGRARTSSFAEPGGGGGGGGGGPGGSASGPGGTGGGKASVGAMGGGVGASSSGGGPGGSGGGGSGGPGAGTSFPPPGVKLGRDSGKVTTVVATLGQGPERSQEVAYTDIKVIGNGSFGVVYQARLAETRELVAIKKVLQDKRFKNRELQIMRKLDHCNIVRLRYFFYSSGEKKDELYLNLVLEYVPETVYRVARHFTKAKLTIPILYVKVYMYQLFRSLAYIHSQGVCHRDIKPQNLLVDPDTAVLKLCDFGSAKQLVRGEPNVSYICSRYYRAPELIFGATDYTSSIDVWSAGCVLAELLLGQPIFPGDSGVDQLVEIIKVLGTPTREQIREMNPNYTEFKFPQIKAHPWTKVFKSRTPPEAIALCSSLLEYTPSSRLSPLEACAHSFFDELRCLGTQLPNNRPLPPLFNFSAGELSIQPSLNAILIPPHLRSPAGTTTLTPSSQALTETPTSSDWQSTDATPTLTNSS

On to `CS(=O)(=O)Nc1ccccc1Nc1nc(Nc2cccc(OCCN)c2)ncc1Cl` [CZC31326, N-(2-(2-(3-(2-aminoethoxy)phenylamino)-5-chloropyrimidin-4-ylamino)phenyl)methanesulfonamide], for which the inhibition at 10 µM on GSK3A amounted to 96.2%; at PKN1 it was 97%; at PKD2 it was 97.9%; at MSK2 it was 96.8%.

Values taken from patent publication US20120270237A9, “METHODS FOR THE IDENTIFICATION OF KINASE INTERACTING MOLECULES AND FOR THE PURIFICATION OF KINASE PROTEINS” (Cellzone AG, priority 2009, published 2012).
